Measurements published in PMC5352758, “Methods for 20S Immunoproteasome and 20S Constitutive Proteasome Determination Based on SPRI Biosensors” (Cellular and Molecular Bioengineering, 2017).
Where a SMILES comes first, the peptide text is derived from it. [ ]: non-standard residue; d: D form. hPhe = N[C@@H](CCc1ccccc1)C(=O)O; Nle = CCCC[C@H](N)C(=O)O

Assays:
chymotrypsin = biological target: T1, chymotrypsin (Bos taurus, UniProt P00766); test: Inhibition of amidolytic activity of chymotrypsin (chromogenic substrate); assay type: biochemical; details: substrate Suc-Phe-pNA 8 mM, tris buffer pH 9.0, chymotrypsin 0.4 units mL−1, 3 min pre-incubation at 37 °C, 20 min incubation, absorbance 405 nm, average of triplicate
T1 construct: purchased Sigma (Schnelldorf, Germany)
Experimental: (§1) Determination of amidolytic activity was performed as described by Okada.[22] The synthetic amidolytic (chromogenic) substrates (Bzl-L-Arg-pNA.HCl for trypsin and Suc-Phe-pNA for chymotrypsin) are selected to give appropriate specificity for inhibition of the serine proteases. A chromophore (para-nitroaniline = pNA, yellow color) is cleaved from the C-terminus amide bond by the protease, and the absorbance can be detected.
(§2) A detailed description of the method is given below. The buffer and the enzyme solution contained: • […] buffer—0.5 mL (pH 7.5), enzyme: trypsin (0.4 units mL^−1), synthetic substrate: Bzl-L-Arg-pNA.HCl (0.2 mL, 8 mM); • tris buffer—0.6 mL (pH 9.0), enzyme: chymotrypsin (0.4 units mL^−1), synthetic substrate: Suc-Phe-pNA (0.2 mL, 8 mM).
(§3) The buffer and 0.1 mL of enzyme solution were added to 0.2 mL of the examined compound dissolved in 0.15 M NaCl (1–11) (as control 0.15 M NaCl). The mixture was incubated for 3 min at 37 °C, then the synthetic substrate was added. After 20 min of incubation, the reaction was stopped by adding 0.1 mL of 50% acetic acid, and the absorbance of the released p-nitroaniline was measured at 405 nm (Spekol 1300, Analytic Jena). Every value represents the average of triplicate determination. The IC50 value was taken as the concentration of the inhibitor which decreased the absorbance at 405 nm by 50% compared with the absorbance measured under the same conditions without the inhibitor.

20Si (immunoproteasome) = biological target: T2, 20Si (immunoproteasome) (Homo sapiens, UniProt P28062+P28065+P40306); test: SPRI measurement of ability of immobilized potential receptor to bind 20Si; assay type: binding; details: for Selectivity of binding 20Si vs 20Sc, in words (text summary of Table 4): 20Si or 20Sc 2.8 μg mL−1; for Ability to bind 20Si: receptor at 1, 10, 100 μg mL−1, 20Si 2.8 μg mL−1, SPRI signal increase of less than 20% = lack of ability to bind
T2 construct: purchased www.vivabioscience.com (Basepoint Business Centre, United Kingdom)
Experimental: (§4) Chips were immersed in an ethanolic solution 1-octadecanothiol (ODM) ([…]) for 24 h at room temperature. Then the biosensors have been repeatedly washed in ethanol and water, and dried under a stream of argon. Chips prepared in this way can be stored and used for subsequent measurements. […] After that time, the process of immobilization of the inhibitor by hydrophobic interaction was completed. A biosensor prepared in this way should be used directly for analysis. A diagram of the chip appears in Fig. 1a.
(§5) The chip was immersed in a vessel with an ethanolic solution of cysteamine for 2 h at room temperature. After 2 h, the chip was rinsed with ethanol and water and dried under a stream of argon. A chip prepared in this manner can be stored and used for subsequent measurements. Each of the synthesised inhibitor solutions was activated with NHS (250 mM) and EDC (250 mM) in the ratio 1: 1 and carbonate buffer (pH 8.5) as a suitable reaction medium. Next, 3 μL of this solution was placed on each of nine active sites on the amine-modified surface. The closed vessel with the biosensor and under appropriate conditions of humidity was incubated at 37 °C for 1 h. Next, the biosensor was rinsed with water and dried under a stream of argon. A biosensor prepared in this way should be used directly for testing and analysis.
(§6) SPRI measurements for the protein biosensor array were performed as described elsewhere.[8],[11] Briefly, the measurements were performed at a fixed angle of incident light and the reflectivity was simultaneously measured cross an entire chip surface. The contrast values obtained for all pixels across a particular sample single spot were integrated. The signal was measured twice on the basis of registered images, after immobilization of the inhibitor and after immunoproteasome interaction. The SPRI signal, which is proportional to the coupled protein, was obtained by subtraction between the signals before and after interaction with protein for each spot separately.
(§7) A background correction was applied i.e. some of the sites on the biosensor covered with PBS buffer were used as a control. Non-specific binding was monitored by measuring the SPRI signal at a site on the chip without the receptor (ligand). Minimization of non-specific binding was achieved by preparing samples in PBS buffer (NaCl an KCl concentration ~200 mM) at pH 7.4 near the isoelectric point of the protein.
(§8) A crucial factor for the application of newly synthesised potential receptors is their selectivity. Selectivity for 20Si or 20Sc was checked using SPRI measurements. […] Measurements were performed as described above at three different concentrations of potential receptors (1, 10, 100 μg mL^−1) at a fixed concentration of 20Si (2.8 μg mL^−1) or 20Sc (2.8 μg mL^−1). An increase in the SPRI signal of less than 20% was considered to imply lack of ability to bind 20Si or 20Sc.

[1] = biological target: 20Sc (constitutive proteasome; commercially available proteasome) (Homo sapiens, UniProt P28072+P28074+Q99436); test: SPRI measurement of ability of immobilized potential receptor to bind 20Sc; assay type: binding, mammalian; details: receptor at 1, 10, 100 μg mL−1, 20Sc 2.8 μg mL−1, SPRI signal increase of less than 20% = lack of ability to bind
Experimental: as §4, §5, §6, §7, §8

20Si = biological target: T3, 20Si (Homo sapiens, UniProt P28062+P28065+P40306); test: Specificity of SPRI biosensor: 20Si determination in the presence of an interferent; assay type: binding; details: added 20Si 2.80 μg mL−1; for Found 20Si: tripeptide as receptor via cysteamine linker, 20Sc 2.8 μg mL−1, ratio 20Si vs. 20Sc 1:1, 95% confidence limits, 12 measurements; for Recovery: tripeptide as receptor, 20Sc 2.8 μg mL−1, ratio 1:1
T3 construct: purchased www.vivabioscience.com (Basepoint Business Centre, United Kingdom)
Experimental: as §6, §7
The specificity of the developed biosensor, especially against 20Sc, is crucial factor for the device’s application. Specificity was investigated at different ratios of 20Si and 20Sc and various 20Si concentrations. Additionally, tolerance of human albumin was checked.
This investigation is crucial for the determination of 20Si in the presence of 20Sc. Series of model solutions containing both 20Si (2.8 μg mL^−1) and 20Sc (2.8 μg mL^−1) were determined using four developed biosensors specific for 20Si. The confidence limits of the results are a measure of measurement precision.

trypsin = test: Inhibition of amidolytic activity of trypsin (chromogenic substrate); assay type: biochemical; details: substrate Bzl-L-Arg-pNA.HCl 8 mM, borane buffer pH 7.5, trypsin 0.4 units mL−1, 3 min pre-incubation at 37 °C, 20 min incubation, absorbance 405 nm, average of triplicate
Experimental: as §1, §2, §3

| SMILES | IC50 (chymotrypsin) [µM] | Selectivity of binding 20Si vs 20Sc, in words (text summary of Table 4) (20Si (immunoproteasome)) | Ability to bind 20Si (20Si (immunoproteasome)) | Ability to bind 20Sc [1] | Found 20Si (20Si) [µg/mL] | Recovery (20Si) [%] | IC50 (trypsin) [µM] |
| --- | --- | --- | --- | --- | --- | --- | --- |
| CC(C)C[C@H](NC(=O)[C@@H](N)Cc1ccccc1)C(=O)N[C@@H](Cc1ccccc1)C(=O)O [compound 1, H-Phe-Leu-Phe-OH] (H-Phe-Leu-Phe-OH) | 178 ± 14 | able to bind both 20Si and 20Sc | + (+, bound) | + (+, bound) | – | – | – |
| N[C@@H](Cc1ccccc1)C(=O)N[C@@H](Cc1ccccc1)C(=O)N[C@@H](Cc1ccccc1)C(=O)O [compound 2, H-Phe-Phe–Phe-OH] (H-Phe-Phe-Phe-OH) | 185 ± 14 | able to bind both 20Si and 20Sc | + (+, bound) | + (+, bound) | – | – | – |
| C[C@H](NC(=O)[C@@H](N)Cc1ccccc1)C(=O)N[C@@H](Cc1ccccc1)C(=O)O [compound 3, H-Phe-Ala-Phe-OH] (H-Phe-Ala-Phe-OH) | 187 ± 14 | able to bind both 20Si and 20Sc | + (+, bound) | + (+, bound) | – | – | – |
| CC(C)C[C@H](N)C(=O)N[C@@H](Cc1ccccc1)C(=O)N[C@@H](Cc1ccccc1)C(=O)O [compound 4, H-Leu-Phe–Phe-OH] (H-Leu-Phe-Phe-OH) | 184 ± 14 | does not capture any form of 20S | – (−, lack of bonding) | – (−, lack of bonding) | – | – | – |
| CC(C)C[C@H](NC(=O)[C@H](CC(C)C)NC(=O)[C@@H](N)Cc1ccccc1)C(=O)O [compound 5, H-Phe-Leu–Leu-OH] (H-Phe-Leu-Leu-OH) | 184 ± 14 | selective inhibition of 20Si | + (+, bound) | – (−, lack of bonding) | 2.97 ± 0.40 | 106 | – |
| CC(C)C[C@H](NC(=O)[C@H](Cc1ccccc1)NC(=O)[C@@H](N)Cc1ccccc1)C(=O)O [compound 6, H-Phe-Phe-Leu-OH] (H-Phe-Phe-Leu-OH) | 174 ± 13 | selectivity to 20Sc | – (−, lack of bonding) | + (+, bound) | – | – | – |
| N[C@@H](Cc1ccccc1)C(=O)N[C@@H](CCc1ccccc1)C(=O)N[C@@H](Cc1ccccc1)C(=O)O [compound 7, H-Phe-hPhe-Phe-OH] (H-Phe-[hPhe]-Phe-OH) | 185 ± 14 | able to bind both 20Si and 20Sc | + (+, bound) | + (+, bound) | – | – | 44 ± 3 |
| CC(C)C[C@H](NC(=O)[C@@H](N)CC(C)C)C(=O)N[C@@H](Cc1ccccc1)C(=O)O [compound 8, H-Leu-Leu-Phe-OH] (H-Leu-Leu-Phe-OH) | 152 ± 12 | selective inhibition of 20Si | + (+, bound) | – (−, lack of bonding) | 2.88 ± 0.44 | 103 | 79 ± 6 |
| N[C@@H](Cc1ccccc1)C(=O)N[C@@H](Cc1ccccc1)C(=O)O [compound 9, H-Phe-Phe-OH] (H-Phe-Phe-OH) | 141 ± 11 | selectivity to 20Sc | – (−, lack of bonding) | + (+, bound) | – | – | – |
| CC(C)C[C@H](NC(=O)[C@H](Cc1ccccc1)NC(=O)[C@@H](N)CC(C)C)C(=O)O [compound 10, H-Leu-Phe-Leu-OH] (H-Leu-Phe-Leu-OH) | 1830 ± 150 | selective inhibition of 20Si | + (+, bound) | – (−, lack of bonding) | 2.89 ± 0.60 | 103 | 12000 ± 960 |
| CCCC[C@H](NC(=O)[C@H](CC(C)C)NC(=O)[C@@H](N)Cc1ccccc1)C(=O)O [compound 11, H-Phe-Leu-nLeu-OH] (H-Phe-Leu-[Nle]-OH) | 1920 ± 150 | selective inhibition of 20Si | + (+, bound) | – (−, lack of bonding) | 2.99 ± 0.47 | 107 | 18000 ± 1440 |
